Source: ChEMBL document CHEMBL3632569, “Chemical constituents from Hericium erinaceus and their ability to stimulate NGF-mediated neurite outgrowth on PC12 cells” (Bioorg Med Chem Lett, 2015)
Active and inactive are the calls of the source. The rule behind the calls is not given here.

How the values were obtained:
[1] = Cytotoxicity against rat PC12 cells assessed as cell viability at 10 and 20 uM after 72 hrs by SRB assay; format: cell-based; conditions: pc-12, 72 h
PC-12 [2] = experiment: Effect on neurite outgrowth in rat PC12 cells at 10 and 20 uM after 48 hrs by inverted microscopic analysis; format: functional, cell-based
PC-12 [3] = experiment: Stimulation of NGF-mediated neurite outgrowth in rat PC12 cells at 10 and 20 uM after 48 hrs by inverted microscopic analysis; format: functional, cell-based
PC-12 [4] = experiment: Stimulation of NGF-mediated neurite outgrowth in rat PC12 cells at 20 uM after 48 hrs by inverted microscopic analysis (reference value: 15.32 +/- 0.25%); format: functional

Compound | Activity [1] | Activity (PC-12 [2]) | Activity (PC-12 [3]) | Activity (PC-12 [4])
CC(C)[C@@H](C)/C=C/[C@@H](C)[C@H]1CC[C@H]2C3=C[C@@H](O)[C@@]4(O)C[C@@H](O)CC[C@]4(C)[C@H]3CC[C@]12C [CEREVISTEROL] | Non-toxic | inactive | Active | –
C[C@H]1[C@H](C)CC[C@]2(C(=O)O)CC[C@]3(C)C(=CC[C@@H]4[C@@]5(C)CC[C@H](O)C(C)(C)[C@@H]5CC[C@]43C)[C@H]12 [URSOLIC ACID] | Non-toxic | inactive | – | –
CCCCCCCCCCCCCCCCCCCC(O)C(=O)N[C@@H](CO)C(O)[C@H](O)CCCCCCCCCCCCCCCCC (stereo partly drawn) | Non-toxic | inactive | – | –
COc1cc2c(c3c1CCC(C)(CC(=O)C=C(C)C)O3)C(=O)OC2 (racemic) | Non-toxic | inactive | Active | 19.96%
C/C(=C\CC(O)[C@@H](C)[C@H]1CC[C@@]2(C)C3=C(CC[C@]12C)[C@@]1(C)CC[C@H](O)C(C)(C)C1CC3)C(=O)O (stereo partly drawn) | Non-toxic | inactive | – | –
C[C@H](CC[C@H](O)C(C)(C)O)[C@H]1CC[C@@]2(C)C3=C(CC[C@]12C)[C@@]1(C)CC[C@H](O)C(C)(C)C1CC3 (stereo partly drawn) | Non-toxic | inactive | – | –
C=C(C)[C@@H]1CC[C@]2(CO)CC[C@]3(C)[C@H](CC[C@@H]4[C@@]5(C)CC[C@H](O)C(C)(C)[C@@H]5CC[C@]43C)[C@@H]12 [BETULIN] | Non-toxic | inactive | – | –
COc1cc2c(c3c1CC[C@](C)(CC(=O)C=C(C)C)O3)C(=O)OC2 | Non-toxic | inactive | Active | 21.79%
CC(C)[C@@H](C)/C=C/[C@@H](C)[C@H]1CC[C@@H]2[C@]1(C)CC[C@H]1[C@]23C=C[C@]2(C[C@@H](O)CC[C@]12C)OO3 [ERGOSTEROL PEROXIDE] | Non-toxic | inactive | Active | –
COc1cc2c(c3c1CC[C@@](C)(CC(=O)C=C(C)C)O3)C(=O)OC2 | Non-toxic | inactive | Active | 17.85%
CC1(C)CC[C@]2(C(=O)O)CC[C@]3(C)C(=CC[C@@H]4[C@@]5(C)CC[C@H](O)C(C)(C)[C@@H]5CC[C@]43C)[C@@H]2C1 [OLEANOLIC_ACID] | Non-toxic | inactive | – | –
CC(C)[C@@H](C)/C=C/[C@@H](C)[C@H]1CC[C@H]2C3=CC(=O)[C@@]4(O)C[C@@H](O)CC[C@]4(C)[C@@]3(O)CC[C@]12C | Non-toxic | inactive | Active | –
